Columns and labels:
HiBit-KRAS^G12C [1] = biological target: T1, HiBit-KRAS^G12C (Homo sapiens, UniProt P01116, G12C); experiment: HiBit degradation assay in MiaPaCa-2 HiBit-KRas^G12C cells; format: cell-based; details: 24 hours; for DC50: read-out: KRas^G12C-HiBiT (MiaPaCa; 0.5% DMSO) IC50; for Dmax: MIA PaCa-2, MiaPaCa-2 HiBit-KRas^G12C cells
Experimental: Reagents. SW1573 (CRL-2170) and MiaPaCa-2 (CRL-1420) cells were purchased from ATCC. Both cell lines are […] for the G12C mutation in KRAS. SW1573 cells were cultured in DMEM+F12+Glutamax (+Sodium Bicarbonate, +sodium pyruvate, Thermofisher scientific, #10565) supplemented with 10% FBS (Thermofisher scientific, #2060357) and 1% Antibiotic-Antimycotic (Thermofisher scientific, #15240096). MiaPaCa-2 cells were cultured in DMEM+Glutamax media (Thermofisher scientific, #10566) supplemented with 10% FBS (Thermofisher scientific, #2060357) and 1% Antibiotic-Antimycotic (Thermofisher scientific, #15240096). For degradation assays, 384 well plates were purchased from Corning (Corning® CellBIND® 384-well Flat Clear Bottom Black Polystyrene Microplates, Low Flange, #3770). Gambogic acid was purchased from Selleckchem (#S2448). Alamar blue was purchased from Thermofisher scientific (A50101) and used according to manufacturer instructions. The Nano-Glo® HiBit Lytic Detection System and Nano-Glo® HiBit Blotting System were purchased from Promega (#N3050 and #N2410) and used according to manufacturer instructions.
To create the MiaPaCa-2 HiBit-KRAS^G12C cell line, CRISPR-Cas9 was used to insert the HiBit tag onto the N-terminus of one or more of the four endogenous KRAS^G12C alleles. After knock-in of the tag, individual clones were isolated by single cell dilution and screened for HiBit insertion by PCR. Clones containing the HiBit tag were sequenced and one was identified that contained the desired HiBit-KRAS^G12C sequence at one allele while the remaining three KRAS^G12C alleles were unaffected. This line was used for all subsequent studies.
Either SW1573 HiBit-KRas^G12C or MiaPaCa-2 HiBit-KRas^G12C cells were plated at 9000 cells/well in a 384 well plate (Corning #3770). Exemplary heterobifunctional molecules and positive controls were diluted in the appropriate cell media and applied to the plated cells resulting in a final concentration titration of 10 μM to 20 nM in either 0.1% or 0.5% dimethyl sulfoxide (DMSO). Gambogic acid was used as a positive control for cytotoxicity and titrated from 10 μM to 78 nM. All assays were performed in triplicate. Cells were treated with compounds for 24 hours at 37° C. in an incubator containing 5% CO2. Following treatment, alamar blue was used to determine if any compounds led to a loss in cell viability after 24 hours. The 10× alamar blue reagent was added to a final concentration of 1× as recommended by the manufacturer and cells were returned to the incubator for 4 hours. Plates were then allowed to equilibrate to room temperature and fluorescence was measured using a Perkin-Elmer EnVision. After completion of the fluorescence read, the liquid from each well was removed and the cells were washed with PBS. The Nano-Glo® HiBiT detection reagent was prepared according to the manufacturer's instructions and added to each well after the PBS wash was removed. Following incubation at room temperature for 45 minutes, the luminescence was read using the ultra-sensitive luminescence aperture on the Envision instrument.
Fluorescence values from the alamar blue treatment were normalized to the DMSO only control for each compound titration. We hypothesized that compounds that led to a ≥50% loss in cell viability of the KRAS-independent SW1573 HiBit-KRas^G12C cells were likely generally cytotoxic and loss of HiBit-KRAS^G12C signal from these compounds may be due to lower cell number and not specific KRAS^G12C degradation. These points were therefore excluded from the data analysis for degradation. […]

HiBit-KRAS^G12C [2] = biological target: T1, HiBit-KRAS^G12C; experiment: HiBit degradation assay in SW1573 HiBit-KRas^G12C cells; format: cell-based; design: expressed in transfected cells; host or cells: SW1573 (clone E6), modified pcDNA3.1 vector, TK promoter; details: 24 hours; for Dmax: SW1573, SW1573 HiBit-KRas^G12C
How it was run: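 HiBit-KRAS G12C degradation was measured after a 24 h compound exposure (titrated 10 μM–20 nM) in engineered SW1573 cells. Lytic HiBit luminescence, expressed relative to DMSO controls, yielded DC50 and Dmax from 4-parameter fits. Concentrations causing ≥50% loss in alamar blue viability were omitted as cytotoxic.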

[3] = MiaPaCa-2 HiBit-KRas^G12C cells, 0.5% DMSO
[4] = read-out: KRas^G12C-HiBiT (SW1573; 0.5% DMSO) IC50***, SW1573 HiBit-KRas^G12C, 0.5% DMSO
[5] = 0.5% DMSO, maximum degradation, read-out: KRas^G12C-HiBiT (MiaPaCa; 0.5% DMSO) DMax
[6] = 0.5% DMSO, read-out: KRas^G12C-HiBiT (SW1573; 0.5% DMSO) Dmax**
[7] = SW1573 HiBit-KRas^G12C, 0.1% DMSO, read-out: KRas^G12C-HIBit (SW1573; 0.1% DMSO) DC50*

T1 sequence (P01116 1-186 isoform P01116-2 G12C limits assumed): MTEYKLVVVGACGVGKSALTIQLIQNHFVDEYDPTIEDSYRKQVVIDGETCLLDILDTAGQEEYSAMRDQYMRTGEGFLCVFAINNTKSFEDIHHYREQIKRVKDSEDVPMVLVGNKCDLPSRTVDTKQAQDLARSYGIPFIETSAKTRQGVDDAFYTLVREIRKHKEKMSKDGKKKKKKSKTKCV

Row | Structure (SMILES) | DC50 (HiBit-KRAS^G12C [1]; [3]) | DC50 (HiBit-KRAS^G12C [2]; [4]) | Dmax (HiBit-KRAS^G12C [1]; [5]) | Dmax (HiBit-KRAS^G12C [2]; [6]) | DC50 (HiBit-KRAS^G12C [2]; [7]) | further results
1 | C=C(F)C(=O)N1CCN(c2nc(OCCN3CCC(COc4cc([C@H](C(=O)N5C[C@H](O)C[C@H]5C(=O)N[C@@H](C)c5ccc(-c6scnc6C)cc5)C(C)C)on4)CC3)nc3c(F)c(-c4cc(O)cc5ccccc45)c(Cl)cc23)C[C@@H]1CC#N [Compound 168, (2S,4R)-1-[(2R)-2-[3-({1-[2-({6-chloro-4-[(3S)-3-(cyanomethyl)-4-(2-fluoroprop-2-enoyl)piperazin-1-yl]-8-fluoro-7-(3-hydroxynaphthalen-1-yl)quinazolin-2-yl}oxy)ethyl]piperidin-4-yl}methoxy)-1,2-oxazol-5-yl]-3-methylbutanoyl]-4-hydroxy-N-[(1S)-1-[4-(4-methyl-1,3-thiazol-5-yl)phenyl]ethyl]pyrrolidine-2-carboxamide] | 100 to 1000 nM | 100 to 1000 nM |  |  |  | KRas^G12C-HiBiT (MiaPaCa; 0.5% DMSO) DMax (HiBit-KRAS^G12C [1]; MiaPaCa-2 HiBit-KRas^G12C cells, 0.5% DMSO, maximum degradation): A (A ≥ 70); KRas^G12C-HiBiT (SW1573; 0.5% DMSO) Dmax** (HiBit-KRAS^G12C [2]; SW1573 HiBit-KRas^G12C, 0.5% DMSO): A (A ≥ 70)
2 | C=C(F)C(=O)N1CCN(c2nc(OCCN3CCC(F)(COc4cc([C@@H](C(=O)N5C[C@H](O)C[C@H]5C(=O)N[C@@H](C)c5ccc(-c6scnc6C)cc5)C(C)C)on4)CC3)nc3c(F)c(-c4cc(O)cc5ccccc45)c(Cl)cc23)C[C@@H]1CC#N (atropisomer, axis not shown) [Compound 122, (2S,4R)-1-[(2S)-2-[3-({1-[2-({6-chloro-4-[(3S)-3-(cyanomethyl)-4-(2-fluoroprop-2-enoyl)piperazin-1-yl]-8-fluoro-7-(3-hydroxynaphthalen-1-yl)quinazolin-2-yl}oxy)ethyl]-4-fluoropiperidin-4-yl}methoxy)-1,2-oxazol-5-yl]-3-methylbutanoyl]-4-hydroxy-N-[(1S)-1-[4-(4-methyl-1,3-thiazol-5-yl)phenyl]ethyl]pyrrolidine-2-carboxamide] | > 1000 nM | > 1000 nM |  |  |  | 
3 | C=C(F)C(=O)N1CCN(c2nc(OCCN3CCC(COc4cc([C@H](C(=O)N5C[C@H](O)C[C@H]5C(=O)N[C@@H](C)c5ccc(-c6ccnn6C)cc5)C(C)C)on4)CC3)nc3c(F)c(-c4cc(O)cc5ccccc45)c(Cl)cc23)C[C@@H]1CC#N (atropisomer, axis not shown) [Compound 141, (2S,4R)-1-[(2R)-2-[3-({1-[2-({6-chloro-4-[(3S)-3-(cyanomethyl)-4-(2-fluoroprop-2-enoyl)piperazin-1-yl]-8-fluoro-7-(3-hydroxynaphthalen-1-yl)quinazolin-2-yl}oxy)ethyl]-piperidin-4-yl}methoxy)-1,2-oxazol-5-yl]-3-methylbutanoyl]-4-hydroxy-N-[(1S)-1-[4-(1-methyl-1H-pyrazol-5-yl)phenyl]ethyl]pyrrolidine-2-carboxamide] | 100 to 1000 nM | < 100 nM | > 70% | > 70% |  | 
4 | C=CC(=O)N1CCN(c2nc(OCCN3CCC(COCC(=O)N[C@H](C(=O)N4C[C@H](O)C[C@H]4C(=O)N[C@@H](C)c4ccc(-c5scnc5C)cc4)C(C)(C)C)CC3)nc3c(F)c(-c4cc(O)cc5ccccc45)c(Cl)cc23)CC1 (atropisomer, axis not shown) [Compound 10, (2S,4R)-1-[(2S)-2-(2-{[1-(2-{[6-chloro-8-fluoro-7-(3-hydroxynaphthalen-1-yl)-4-[4-(prop-2-enoyl)piperazin-1-yl]quinazolin-2-yl]oxy}ethyl)piperidin-4-yl]methoxy}acetamido)-3,3-dimethylbutanoyl]-4-hydroxy-N-[(1S)-1-[4-(4-methyl-1,3-thiazol-5-yl)phenyl]ethyl]pyrrolidine-2-carboxamide] |  |  |  |  | > 1000 nM | 

Second part, led by results:

Row | DC50 (HiBit-KRAS^G12C [1]; [3]) | DC50 (HiBit-KRAS^G12C [2]; [4]) | Dmax (HiBit-KRAS^G12C [1]; [5]) | Dmax (HiBit-KRAS^G12C [2]; [6]) | DC50 (HiBit-KRAS^G12C [2]; [7]) | Structure (SMILES) | further results
5 |  |  | < 35% | 35 to 70% | > 1000 nM | C=CC(=O)N1CCN(c2nc(O[C@H](C)CN3CCC(OCCOCC(=O)N[C@H](C(=O)N4C[C@H](O)C[C@H]4C(=O)N[C@@H](C)c4ccc(-c5scnc5C)cc4)C(C)(C)C)CC3)nc3c2CCN(c2cc(O)cc4ccccc24)C3)C[C@@H]1CC#N [Compound 31, (2S,4R)-1-[(2S)-2-{2-[2-({1-[(2R)-2-({4-[(3S)-3-(cyanomethyl)-4-(prop-2-enoyl)piperazin-1-yl]-7-(3-hydroxynaphthalen-1-yl)-5H,6H,7H,8H-pyrido[3,4-d]pyrimidin-2-yl}oxy)propyl]piperidin-4-yl}oxy)ethoxy]acetamido}-3,3-dimethylbutanoyl]-4-hydroxy-N-[(1S)-1-[4-(4-methyl-1,3-thiazol-5-yl)phenyl]ethyl]pyrrolidine-2-carboxamide] | Dmax (HiBit-KRAS^G12C [1]; 0.1% DMSO, maximum degradation, read-out: KRas^G12C-HiBiT (MiaPaCa; 0.1% DMSO) DMax): < 35%; Dmax (HiBit-KRAS^G12C [2]; 0.1% DMSO, read-out: KRas^G12C-HiBit (SW1573; 0.1% DMSO) Dmax**): 35 to 70%
6 | 100 to 1000 nM | < 100 nM | > 70% | > 70% |  | C=CC(=O)N1CCN(c2nc(OCCN3CCC(F)(COc4cc([C@H](C(=O)N5C[C@H](O)C[C@H]5C(=O)N[C@@H](C)c5ccc(-c6scnc6C)cc5)C(C)C)on4)CC3)nc3c(F)c(-c4cc(O)cc5ccccc45)c(Cl)cc23)C[C@@H]1CC#N [Compound 133, (2S,4R)-1-[(2R)-2-[3-({1-[2-({6-chloro-4-[(3S)-3-(cyanomethyl)-4-(prop-2-enoyl)piperazin-1-yl]-8-fluoro-7-(3-hydroxynaphthalen-1-yl)quinazolin-2-yl}oxy)ethyl]-4-fluoropiperidin-4-yl}methoxy)-1,2-oxazol-5-yl]-3-methylbutanoyl]-4-hydroxy-N-[(1S)-1-[4-(4-methyl-1,3-thiazol-5-yl)phenyl]ethyl]pyrrolidine-2-carboxamide] | 
7 |  |  |  |  | > 1000 nM | C=CC(=O)N1CCN(c2nc(O[C@H](C)CN3CCC(OCCOCCOCCOCCOCCOCCOCCOCCOCCOCCOCC(=O)N[C@H](C(=O)N4C[C@H](O)C[C@H]4C(=O)N[C@@H](C)c4ccc(-c5scnc5C)cc4)C(C)(C)C)CC3)nc3c(F)c(-c4cc(O)cc5ccccc45)c(Cl)cc23)CC1 [Compound 83, (2S,4R)-1-[(2S)-2-[32-({1-[(2R)-2-{[6-chloro-8-fluoro-7-(3-hydroxynaphthalen-1-yl)-4-[4-(prop-2-enoyl)piperazin-1-yl]quinazolin-2-yl]oxy}propyl]piperidin-4-yl}oxy)-3,6,9,12,15,18,21,24,27,30-decaoxadotriacontanamido]-3,3-dimethylbutanoyl]-4-hydroxy-N-[(1S)-1-[4-(4-methyl-1,3-thiazol-5-yl)phenyl]ethyl]pyrrolidine-2-carboxamide] | 

— patent US20220370416A1, “COMPOUNDS AND METHODS FOR TARGETED DEGRADATION OF KRAS” (Arvinas Operations, Inc., priority 2020, published 2022)
